Measurements taken from ChEMBL document CHEMBL1828607, “N-Heteroaryl glycinamides and glycinamines as potent NPY5 antagonists” (Bioorg Med Chem Lett, 2011).
In brackets after ≈: the same amount, converted by molar mass.

Experiments:
in vivo [1] = details: Sprague-Dawley, rat, brain, po, 10 mg/kg
Description: Drug level in femoral artery cannulated Sprague-Dawley rat brain at 10 mg/kg, po after 1 hr by LC/MS/MS method

in vivo [2] = details: Sprague-Dawley, rat, brain/plasma, po, 10 mg/kg
Description: Ratio of drug level in brain to plasma in femoral artery cannulated Sprague-Dawley rat at 10 mg/kg, po after 1 hr by LC/MS/MS method

in vivo [3] = details: Sprague-Dawley, rat, plasma, po, 10 mg/kg
Description: Drug level in femoral artery cannulated Sprague-Dawley rat plasma at 10 mg/kg, po after 1 hr by LC/MS/MS method

physchem [4] = details: buffer, pH 7.4
Description: Solubility of the compound at pH 7.4

physchem [5] = details: octanol/water
Description: Lipophilicity, log D of the compound

Row | Structure (SMILES) | concentration at 1 h (in vivo [1]) | Kp at 1 h (in vivo [2]) | concentration at 1 h (in vivo [3]) | solubility (physchem [4]) | logD (physchem [5])
1 | CC(C)S(=O)(=O)NC[C@H]1CC[C@H](NC(=O)CN2C(=O)CCc3cc(Cl)ccc32)CC1 | 16 nM | 0.02 | 879 nM |  | 
2 | CC(C)S(=O)(=O)NC[C@H]1CC[C@H](NC(=O)CN2C(=O)COc3cc(Cl)ccc32)CC1 | 33 nM | 0.07 | 481 nM |  | 
3 | CN(C)S(=O)(=O)NC[C@H]1CC[C@H](NC(=O)CN2C(=O)CC(C)(C)Sc3ccccc32)CC1 |  |  | 1.5 nM | 440 µg/mL (≈ 912 µM) | 2.4
4 | CC(C)S(=O)(=O)NC[C@H]1CC[C@H](NC(=O)CN2CCOc3cc(Cl)ccc32)CC1 | 43 nM | 0.1 | 430 nM |  | 
